From BindingDB's records for doi:10.1016/j.ejmech.2015.08.002 (Ochanomizu University, 2015)

Biological target: Androgen receptor (Mus musculus) (UniProt P19091)
Assay: Antagonist activity at wild type AR expressed in mouse SC-3 cells assessed as inhibition of 1 nM DHT-induced cell proliferation after 3 days by WST-8 assay

Chain of Androgen receptor (Mus musculus) (P19091 whole entry, looked up): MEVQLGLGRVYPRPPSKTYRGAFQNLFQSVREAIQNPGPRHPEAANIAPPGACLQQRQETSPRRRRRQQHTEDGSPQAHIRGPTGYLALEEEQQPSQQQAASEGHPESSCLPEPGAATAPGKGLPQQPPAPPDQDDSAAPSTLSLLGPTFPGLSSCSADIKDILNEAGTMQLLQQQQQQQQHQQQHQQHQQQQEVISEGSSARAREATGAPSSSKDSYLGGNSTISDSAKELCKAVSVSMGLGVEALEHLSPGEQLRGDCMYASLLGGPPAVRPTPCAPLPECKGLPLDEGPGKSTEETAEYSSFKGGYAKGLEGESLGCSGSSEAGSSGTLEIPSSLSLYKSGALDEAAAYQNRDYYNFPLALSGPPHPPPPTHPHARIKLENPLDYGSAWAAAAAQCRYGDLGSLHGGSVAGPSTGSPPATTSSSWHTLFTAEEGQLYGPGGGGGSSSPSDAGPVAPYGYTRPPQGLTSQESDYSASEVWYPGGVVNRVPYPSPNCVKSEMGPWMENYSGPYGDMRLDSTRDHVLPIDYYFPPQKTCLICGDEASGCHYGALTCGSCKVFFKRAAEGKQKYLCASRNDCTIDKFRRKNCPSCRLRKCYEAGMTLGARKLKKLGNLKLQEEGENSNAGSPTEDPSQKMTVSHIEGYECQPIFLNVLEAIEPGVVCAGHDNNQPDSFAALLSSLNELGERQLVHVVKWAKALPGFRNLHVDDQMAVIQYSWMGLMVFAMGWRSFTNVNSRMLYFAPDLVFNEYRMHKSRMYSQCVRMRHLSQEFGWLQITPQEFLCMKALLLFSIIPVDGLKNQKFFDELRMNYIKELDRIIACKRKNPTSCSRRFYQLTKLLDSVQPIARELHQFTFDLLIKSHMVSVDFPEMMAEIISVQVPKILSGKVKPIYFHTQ

SMILES	IC50 [µM]
O=c1[nH]nc(Cc2ccccc2)c2ccccc12	5.37
Cc1ccccc1Cc1n[nH]c(=O)c2ccccc12	9.54
COc1ccccc1Cc1n[nH]c(=O)c2ccccc12	9.59
O=c1[nH]nc(Cc2ccccc2F)c2ccccc12	10.5
O=c1[nH]nc(Cc2ccccc2C(F)(F)F)c2ccccc12	3.67
CCN(CC)c1ccccc1Cc1n[nH]c(=O)c2ccccc12	1.66
CCNc1ccccc1Cc1n[nH]c(=O)c2ccccc12	3.71
CN(C)c1ccccc1Cc1n[nH]c(=O)c2ccccc12	1.95
CNc1ccccc1Cc1n[nH]c(=O)c2ccccc12	9.02
Cc1cccc(C)c1Cc1n[nH]c(=O)c2ccccc12	1.38
O=c1[nH]nc(Cc2c(F)cccc2F)c2ccccc12	3.76
O=c1[nH]nc(Cc2ccccc2Cl)c2ccccc12 [4-(2-chlorobenzyl)phthalazin-1(2H)-one]	1.26

Now those with a lower IC50, led by results:

IC50 [µM]	SMILES
0.53	O=c1[nH]nc(Cc2ccccc2[N+](=O)[O-])c2ccccc12
0.22	Nc1ccccc1Cc1n[nH]c(=O)c2ccccc12
1.01	O=C(Nc1ccccc1Cc1n[nH]c(=O)c2ccccc12)C(F)(F)F
0.18	O=c1[nH]nc(Cc2c(Cl)cccc2Cl)c2ccccc12
0.92	O=c1[nH]nc(Cc2c(Cl)ccc(Cl)c2Cl)c2ccccc12
